The values that follow come from patent US20250084056A1, “SUBSTITUTED OXOISOINDOLINYL PIPERIDINE-2,6-DIONE COMPOUNDS” (BRISTOL-MYERS SQUIBB COMPANY, priority 2023, published 2025).

A value given as a limit tells only on which side of the number the result lay.

Holding throughout (assay type): cell-based
Assay [1] addresses GSPT1 (Homo sapiens, UniProt P15170+Q96SW2). Briefly: GSPT1 Cellular Degradation Assay (DF15-GSPT1-ePL). More on the design: expressed in transfected cells. Particulars: DF15-GSPT1-ePL cells, 20 hours. A digest of the protocol:
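DC50 and Dmax were derived from chemiluminescence, with 75% response set by the reference compound at […]. Readout was ePL enzyme-fragment complementation in a DF15 line expressing chimeric GSPT1. Cells were exposed to compound for 20 h at 37 °C in RPMI 1640 with 10% FBS, cooled 30 min, then lysed with substrate for 60 min.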

For assay [2], the target named is Cyclin E1 (Homo sapiens, UniProt P24864+Q96SW2). Briefly: Cyclin E1 Cellular Degradation Assay (MSD). Also noted: endogenous in cells; host or cells: OVCAR3. The settings on record: for DC50 / Dmax: Cyclin E1 cellular degradation; for Dmax: maximum degradation; for Ratio of GSPT1 DC50/Cyclin E1 DC50: selectivity for degradation of Cyclin E1 over GSPT1. A digest of the protocol: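 Cyclin E1 remaining after 24 h compound exposure of OVCAR3 cells was quantified in lysates by electrochemiluminescent MSD sandwich assay. DC50 (50% response concentration) and Dmax (maximum response) were calculated, with 110% response set by a reference compound at […].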

Assay [3] relates to Phospho-Rb (Ser807/811). Briefly: Phospho-Retinoblastoma (pRB) Cellular Assay. The settings on record: Homo sapiens, OVCAR-3, NIH OVCAR3 cells, 24 hours; for IC50: concentration giving 50% response; for Emax: maximum response, reference compound at 10 μM = 100%, read-out: pRB Ymax. A digest of the protocol:
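Phospho-Rb (Ser807/811) kit read-out on EnVision after lysis (≥4 h, room temperature, dark) of OVCAR3 cells exposed to compound dilutions for 24 h. IC50 and maximum response Ymax are relative to a 10 μM reference compound defining 100%.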

Chain of Cyclin E1 (P24864 whole entry): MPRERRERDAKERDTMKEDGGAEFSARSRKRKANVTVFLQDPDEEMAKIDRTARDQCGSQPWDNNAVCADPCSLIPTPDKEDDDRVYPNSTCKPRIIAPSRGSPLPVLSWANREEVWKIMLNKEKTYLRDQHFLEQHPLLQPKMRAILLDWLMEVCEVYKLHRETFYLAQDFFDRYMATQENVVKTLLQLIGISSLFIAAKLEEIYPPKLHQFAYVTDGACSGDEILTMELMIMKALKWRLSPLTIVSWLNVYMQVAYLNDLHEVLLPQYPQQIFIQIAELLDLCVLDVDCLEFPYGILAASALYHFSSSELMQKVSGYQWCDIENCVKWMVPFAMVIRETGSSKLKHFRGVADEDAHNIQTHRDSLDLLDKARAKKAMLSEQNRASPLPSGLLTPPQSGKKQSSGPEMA
Chain of Cyclin E1 (Q96SW2 whole entry): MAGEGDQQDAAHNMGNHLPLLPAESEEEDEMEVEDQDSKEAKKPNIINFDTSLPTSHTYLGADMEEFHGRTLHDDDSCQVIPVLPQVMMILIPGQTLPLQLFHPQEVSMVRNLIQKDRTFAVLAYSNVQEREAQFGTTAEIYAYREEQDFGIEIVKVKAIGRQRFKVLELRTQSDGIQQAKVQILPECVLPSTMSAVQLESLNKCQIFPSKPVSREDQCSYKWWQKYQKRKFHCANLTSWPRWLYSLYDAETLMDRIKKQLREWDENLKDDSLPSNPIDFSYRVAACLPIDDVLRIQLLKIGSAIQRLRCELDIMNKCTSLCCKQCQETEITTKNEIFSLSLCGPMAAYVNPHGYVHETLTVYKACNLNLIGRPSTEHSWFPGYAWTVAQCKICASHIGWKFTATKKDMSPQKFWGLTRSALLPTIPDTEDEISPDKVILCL
Chain of Cyclin E1 (Q16531 whole entry partner): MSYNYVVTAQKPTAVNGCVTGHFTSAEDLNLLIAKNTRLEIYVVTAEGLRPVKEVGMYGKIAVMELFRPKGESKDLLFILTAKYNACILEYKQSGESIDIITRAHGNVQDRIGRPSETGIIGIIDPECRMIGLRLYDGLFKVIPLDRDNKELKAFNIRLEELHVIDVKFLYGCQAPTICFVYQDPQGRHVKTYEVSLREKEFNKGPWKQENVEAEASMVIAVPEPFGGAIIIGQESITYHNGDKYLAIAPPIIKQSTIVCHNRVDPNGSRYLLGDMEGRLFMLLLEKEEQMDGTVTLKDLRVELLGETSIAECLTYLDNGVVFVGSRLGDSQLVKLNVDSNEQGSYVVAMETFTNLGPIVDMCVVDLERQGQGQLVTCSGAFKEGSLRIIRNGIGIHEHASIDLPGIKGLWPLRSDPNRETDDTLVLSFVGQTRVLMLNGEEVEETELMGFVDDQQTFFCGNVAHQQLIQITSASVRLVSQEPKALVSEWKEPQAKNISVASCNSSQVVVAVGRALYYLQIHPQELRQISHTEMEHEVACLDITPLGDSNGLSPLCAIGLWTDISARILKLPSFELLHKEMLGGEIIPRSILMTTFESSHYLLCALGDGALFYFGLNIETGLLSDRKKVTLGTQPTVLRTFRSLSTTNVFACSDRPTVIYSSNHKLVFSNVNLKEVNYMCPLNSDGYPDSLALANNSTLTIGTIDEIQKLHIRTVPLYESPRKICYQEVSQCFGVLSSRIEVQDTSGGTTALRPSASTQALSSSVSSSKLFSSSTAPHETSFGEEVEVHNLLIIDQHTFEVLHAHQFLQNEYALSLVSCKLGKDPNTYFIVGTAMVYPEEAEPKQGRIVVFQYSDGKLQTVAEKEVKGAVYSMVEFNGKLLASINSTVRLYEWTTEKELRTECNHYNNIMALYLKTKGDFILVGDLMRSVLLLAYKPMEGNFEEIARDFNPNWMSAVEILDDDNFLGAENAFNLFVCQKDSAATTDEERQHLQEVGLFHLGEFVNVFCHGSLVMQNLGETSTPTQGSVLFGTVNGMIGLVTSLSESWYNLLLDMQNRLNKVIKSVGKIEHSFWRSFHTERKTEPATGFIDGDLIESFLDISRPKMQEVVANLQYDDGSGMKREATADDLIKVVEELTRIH
Chain of GSPT1 (P15170 whole entry, the tested form may be a part): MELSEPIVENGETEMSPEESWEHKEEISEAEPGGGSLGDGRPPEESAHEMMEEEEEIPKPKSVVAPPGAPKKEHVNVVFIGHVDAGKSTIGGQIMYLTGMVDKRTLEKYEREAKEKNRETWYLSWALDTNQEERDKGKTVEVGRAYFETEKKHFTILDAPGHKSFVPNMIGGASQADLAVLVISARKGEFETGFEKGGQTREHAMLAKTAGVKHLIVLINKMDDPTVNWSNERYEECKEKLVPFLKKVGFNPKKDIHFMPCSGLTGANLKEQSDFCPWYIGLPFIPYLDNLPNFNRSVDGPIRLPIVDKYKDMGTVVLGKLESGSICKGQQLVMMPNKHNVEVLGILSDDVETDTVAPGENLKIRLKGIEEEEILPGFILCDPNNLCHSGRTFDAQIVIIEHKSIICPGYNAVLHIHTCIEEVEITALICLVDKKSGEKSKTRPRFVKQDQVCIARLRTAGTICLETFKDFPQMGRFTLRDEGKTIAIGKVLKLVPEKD
Chain of GSPT1 (Q96SW2 whole entry, the tested form may be a part): as the sequence (Q96SW2 whole entry) above
Chain of GSPT1 (Q16531 whole entry partner, the tested form may be a part): as the sequence (Q16531 whole entry partner) above

As to `COc1cccc(Oc2ccc(NC(=O)OCc3ccc4c(c3OC)C(=O)N(C3CCC(=O)NC3=O)C4)cc2)c1` (stereo not drawn) [Example 32, [2-(2,6-dioxopiperidin-3-yl)-4-methoxy-3-oxo-2,3-dihydro-1H-isoindol-5-yl]methyl N-[4-(3-methoxyphenoxy)phenyl]carbamate], in assay [1], the DC50 (as a rule, the concentration at which degradation of the target reaches its halfway point) is above 14000 nM and the Dmax (usually the greatest extent of degradation seen) came to 24%. In assay [2], the DC50 stood at 67 nM, the Dmax is 96% and the “Ratio of GSPT1 DC50/Cyclin E1 DC50” value is listed as above 208. For the same molecule, in assay [3], 498 nM corresponded to half-maximal inhibition (IC50) and the Emax worked out at 83%.

For the molecule `COc1cc(Oc2ccccc2)ccc1NC(=O)OCc1ccc2c(c1OC)C(=O)N(C1CCC(=O)NC1=O)C2` (stereo not drawn) [Example 93, [2-(2,6-dioxopiperidin-3-yl)-4-methoxy-3-oxo-2,3-dihydro-1H-isoindol-5-yl]methyl N-(2-methoxy-4-phenoxyphenyl)carbamate], in assay [1], the DC50 is above 14000 nM and the Dmax worked out at 5%. In addition, in assay [2], the 50% degradation concentration (DC50) amounted to 338 nM, the Dmax came out at 103% and the “Ratio of GSPT1 DC50/Cyclin E1 DC50” value is reported as above 41. In addition, in assay [3], the IC50 – broadly, the concentration that inhibits the measured activity by half – was found to be 159 nM and the Emax came out at 111%.

Take `CC(C)Oc1c(COC(=O)Nc2ccc(Oc3ccccc3)cc2)ccc2c1C(=O)N(C1CCC(=O)NC1=O)C2` (stereo not drawn) [Example 57, [2-(2,6-dioxopiperidin-3-yl)-3-oxo-4-(propan-2-yloxy)-2,3-dihydro-1H-isoindol-5-yl]methyl N-(4-phenoxyphenyl)carbamate]: in assay [1], the DC50 is above 14000 nM and the Dmax amounted to 36%. In assay [2], the DC50 turned out to be 128 nM, the Dmax was found to be 102% and the “Ratio of GSPT1 DC50/Cyclin E1 DC50” value is above 109. In addition, in assay [3], the half-maximal inhibitory concentration (IC50) was determined as 212 nM and the Emax was found to be 114%.

In the case of `COc1c(COC(=O)Nc2ccc(Oc3cccc(Cl)c3)cc2)ccc2c1C(=O)N(C1CCC(=O)NC1=O)C2` (stereo not drawn) [Example 3, [2-(2,6-dioxopiperidin-3-yl)-4-methoxy-3-oxo-2,3-dihydro-1H-isoindol-5-yl]methyl N-[4-(3-chlorophenoxy)phenyl]carbamate], in assay [1], the 50% degradation concentration (DC50) was above 14000 nM and the Dmax is 34%. In assay [2], the DC50 is 91 nM, the Dmax was determined as 112% and the “Ratio of GSPT1 DC50/Cyclin E1 DC50” value is above 153. In assay [3], the concentration for half-maximal inhibition (IC50) worked out at 103 nM and the Emax came to 120%.

`CCOc1c(COC(=O)Nc2ccc(Oc3cccc(F)c3)cc2)ccc2c1C(=O)N(C1CCC(=O)NC1=O)C2` (stereo not drawn) [Example 55, [2-(2,6-dioxopiperidin-3-yl)-4-ethoxy-3-oxo-2,3-dihydro-1H-isoindol-5-yl]methyl N-[4-(3-fluorophenoxy)phenyl]carbamate]: in assay [1], the DC50 is above 14000 nM and the Dmax is 21%. In addition, in assay [2], the half-maximal degradation concentration (DC50) is 141 nM, the Dmax amounted to 108% and the “Ratio of GSPT1 DC50/Cyclin E1 DC50” value is on record as above 99. In assay [3], the IC50 is 185 nM and the Emax was 114%.

As to `COc1c(COC(=O)Nc2ccc(Oc3ccc(F)c(Cl)c3)cc2F)ccc2c1C(=O)N(C1CCC(=O)NC1=O)C2` (stereo not drawn) [Example 98, [2-(2,6-dioxopiperidin-3-yl)-4-methoxy-3-oxo-2,3-dihydro-1H-isoindol-5-yl]methyl N-[4-(3-chloro-4-fluorophenoxy)-2-fluorophenyl]carbamate], in assay [1], the 50% degradation concentration (DC50) was above 14000 nM and the Dmax turned out to be 28%. In assay [2], the half-maximal degradation concentration (DC50) was 97 nM, the Dmax stood at 109% and the “Ratio of GSPT1 DC50/Cyclin E1 DC50” value is above 144. Further, in assay [3], the IC50 was 92 nM and the Emax came out at 106%.

On to `COc1c(COC(=O)Nc2ccc(Oc3cccc(Cl)c3)cc2F)ccc2c1C(=O)N(C1CCC(=O)NC1=O)C2` (stereo not drawn) [Example 26, [2-(2,6-dioxopiperidin-3-yl)-4-methoxy-3-oxo-2,3-dihydro-1H-isoindol-5-yl]methyl N-[4-(3-chlorophenoxy)-2-fluorophenyl]carbamate], for which, in assay [1], the DC50 was above 14000 nM and the Dmax was determined as 32%. In assay [2], the DC50 was 97 nM, the Dmax is 106% and the “Ratio of GSPT1 DC50/Cyclin E1 DC50” value is above 145. In addition, in assay [3], the IC50 turned out to be 428 nM and the Emax stood at 96%.

For `COc1c(COC(=O)Nc2ccc(Oc3ccc(F)cc3)cc2F)ccc2c1C(=O)N(C1CCC(=O)NC1=O)C2` (stereo not drawn) [Example 28, [2-(2,6-dioxopiperidin-3-yl)-4-methoxy-3-oxo-2,3-dihydro-1H-isoindol-5-yl]methyl N-[2-fluoro-4-(4-fluorophenoxy)phenyl]carbamate], in assay [1], the DC50 is above 14000 nM and the Dmax was 45%. In assay [2], the DC50 amounted to 110 nM, the Dmax was found to be 103% and the “Ratio of GSPT1 DC50/Cyclin E1 DC50” value was above 127. Also, in assay [3], the IC50 was found to be 100 nM and the Emax came out at 106%.

On to `O=C1CCC(N2Cc3ccc(COC(=O)Nc4ccc(Oc5ccc(F)c(F)c5)cc4F)c(O[C@@H]4CCOC4)c3C2=O)C(=O)N1` (stereo partly drawn) [Example 154, [2-(2,6-dioxopiperidin-3-yl)-3-oxo-4-[(3R)-oxolan-3-yloxy]-2,3-dihydro-1H-isoindol-5-yl]methyl N-[4-(3,4-difluorophenoxy)-2-fluorophenyl]carbamate], for which, in assay [1], the half-maximal degradation concentration (DC50) is above 14000 nM and the Dmax was determined as 26%. In addition, in assay [2], it took 147 nM to reach half-maximal degradation (DC50), the Dmax was found to be 100% and the “Ratio of GSPT1 DC50/Cyclin E1 DC50” value is reported as above 95. Also, in assay [3], it took 225 nM to reach half-maximal inhibition (IC50) and the Emax turned out to be 123%.

On to `O=C1CCC(N2Cc3ccc(COC(=O)Nc4ccc(Oc5ccccc5Cl)cc4)c(Oc4ccccc4)c3C2=O)C(=O)N1` (stereo not drawn) [Example 66, [2-(2,6-dioxopiperidin-3-yl)-3-oxo-4-phenoxy-2,3-dihydro-1H-isoindol-5-yl]methyl N-[4-(2-chlorophenoxy)phenyl]carbamate], for which, in assay [1], the DC50 is above 14000 nM and the Dmax is 19%. For the same molecule, in assay [2], half-maximal degradation (DC50) was put at 111 nM, the Dmax turned out to be 103% and the “Ratio of GSPT1 DC50/Cyclin E1 DC50” value is listed as above 126. Besides, in assay [3], half-maximal inhibition (IC50) was put at 55 nM and the Emax worked out at 148%.

With `O=C1CCC(N2Cc3ccc(COC(=O)Nc4ccc(Oc5ccc(F)cc5Cl)cc4)c(Oc4ccccc4)c3C2=O)C(=O)N1` (stereo not drawn) [Example 70, [2-(2,6-dioxopiperidin-3-yl)-3-oxo-4-phenoxy-2,3-dihydro-1H-isoindol-5-yl]methyl N-[4-(2-chloro-4-fluorophenoxy)phenyl]carbamate], in assay [1], the DC50 was above 14000 nM and the Dmax was determined as 9%. Also, in assay [2], it took 185 nM to reach half-maximal degradation (DC50), the Dmax stood at 94% and the “Ratio of GSPT1 DC50/Cyclin E1 DC50” value was above 76. Also, in assay [3], the IC50 was found to be 223 nM and the Emax was determined as 114%.

Turning to `O=C1CCC(N2Cc3ccc(COC(=O)Nc4ccc(Oc5ccc(F)c(F)c5)cc4)c(OC4COC4)c3C2=O)C(=O)N1` (stereo not drawn) [Example 129, [2-(2,6-dioxopiperidin-3-yl)-4-(oxetan-3-yloxy)-3-oxo-2,3-dihydro-1H-isoindol-5-yl]methyl N-[4-(3,4-difluorophenoxy)phenyl]carbamate], in assay [1], the half-maximal degradation concentration (DC50) was above 14000 nM and the Dmax amounted to 19%. For the same molecule, in assay [2], the half-maximal degradation concentration (DC50) was 221 nM, the Dmax stood at 107% and the “Ratio of GSPT1 DC50/Cyclin E1 DC50” value is recorded as above 63. Moreover, in assay [3], the IC50 was found to be 187 nM and the Emax came out at 117%.

Consider `COc1c(COC(=O)Nc2ccc(Cc3cc(F)c(F)c(F)c3)cc2)ccc2c1C(=O)N(C1CCC(=O)NC1=O)C2` (stereo not drawn) [Example 19, [2-(2,6-dioxopiperidin-3-yl)-4-methoxy-3-oxo-2,3-dihydro-1H-isoindol-5-yl]methyl N-{4-[(3,4,5-trifluorophenyl)methyl]phenyl}carbamate], for which, in assay [1], the half-maximal degradation concentration (DC50) was above 14000 nM and the Dmax was 9%. Moreover, in assay [2], half-maximal degradation (DC50) was put at 146 nM, the Dmax stood at 105% and the “Ratio of GSPT1 DC50/Cyclin E1 DC50” value is reported as above 96. In assay [3], the midpoint of inhibition, the IC50, lay at 701 nM and the Emax came out at 92%.

With `O=C1CCC(N2Cc3ccc(COC(=O)Nc4ccc(Oc5ccc(F)c(F)c5)cc4F)c(Oc4ccccc4)c3C2=O)C(=O)N1` (stereo not drawn) [Example 69, [2-(2,6-dioxopiperidin-3-yl)-3-oxo-4-phenoxy-2,3-dihydro-1H-isoindol-5-yl]methyl N-[4-(3,4-difluorophenoxy)-2-fluorophenyl]carbamate], in assay [1], the DC50 was above 14000 nM and the Dmax turned out to be 11%. In assay [2], half-maximal degradation (DC50) was put at 263 nM, the Dmax was 105% and the “Ratio of GSPT1 DC50/Cyclin E1 DC50” value is on record as above 53. Further, in assay [3], the IC50 came to 94 nM and the Emax came to 125%.

In the case of `COCCOc1c(COC(=O)Nc2ccc(Oc3ccc(F)c(F)c3)cc2F)ccc2c1C(=O)N(C1CCC(=O)NC1=O)C2` (stereo not drawn) [Example 169, [2-(2,6-dioxopiperidin-3-yl)-4-(2-methoxyethoxy)-3-oxo-2,3-dihydro-1H-isoindol-5-yl]methyl N-[4-(3,4-difluorophenoxy)-2-fluorophenyl]carbamate], in assay [1], the 50% degradation concentration (DC50) is above 14000 nM and the Dmax is 7%. Also, in assay [2], it took 88 nM to reach half-maximal degradation (DC50), the Dmax amounted to 104% and the “Ratio of GSPT1 DC50/Cyclin E1 DC50” value is given as above 159. Moreover, in assay [3], the IC50 turned out to be 36 nM and the Emax came to 120%.
